Values belong to the compound of their own block, whether it stands above or below them.
Assays:
[1] = biological target: T1, Calcium/calmodulin-dependent protein kinase type II subunit alpha (Rattus norvegicus, UniProt P11275); experiment: Inhibition of [3H]NCS-382 binding to CaMKIIalpha in rat brain cortical membrane assessed as inhibition constant incubated for 1 hrs by TopCount NXT microplate scintillation counter analysis; type: cell membranes, Cortex; conditions: read-out: Ki
[2] = biological target: T1, Calcium/calmodulin-dependent protein kinase type II subunit alpha; experiment: Inhibition of […] binding to CaMKIIalpha in rat brain cortical membrane assessed as inhibition constant incubated for 1 hrs by TopCount NXT microplate scintillation counter analysis; type: cell membranes, Cortex
[3] = Metabolic stability in pooled CD-1 mouse liver microsomes assessed as parent compound remaining at 10 uM measured after 30 mins in presence of NADPH regeneration system by LC-MS analysis; type: ADME, Microsome; conditions: read-out: Stability
BCRP [4] = experiment: Apparent permeability across apical to basolateral side in human Caco-2 cells transfected with human BCRP at 3 uM preincubated with novobiocin for 15 to 30 mins followed by compound addition and measured after 60 to 90 mins by LC-MS/MS analysis; type: ADME, cell-based; conditions: time 60-90 min
[5] = Ratio of drug concentration in mouse brain to plasma at 10 mg/kg, ip measured after 0.5 hrs by LC-MS/MS analysis; type: ADME, organism-based; conditions: brain and plasma, read-out: BPR
BCRP [6] = experiment: Efflux ratio of apparent permeability across basolateral to apical side over apical to basolateral side in human Caco-2 cells transfected with human BCRP at 3 uM preincubated with novobiocin for 15 to 30 mins followed by compound addition and measured after 60 to 90 mins by LC-MS/MS analysis; type: ADME, cell-based; conditions: time 60-90 min
[7] = Metabolic stability in pooled human plasma assessed as parent compound remaining at 20 uM measured after 60 mins by LC-MS analysis; type: ADME, cell-free; conditions: read-out: Stability
[8] = Metabolic stability in pooled human plasma assessed as parent compound remaining at 20 uM measured after 30 mins by LC-MS analysis; type: ADME, cell-free; conditions: read-out: Stability
BCRP [9] = experiment: Efflux ratio of apparent permeability across basolateral to apical side over apical to basolateral side in human Caco-2 cells transfected with human BCRP at 3 uM measured after 60 to 90 mins by LC-MS/MS analysis; type: ADME, cell-based; conditions: time 60-90 min
[10] = Metabolic stability in pooled human plasma assessed as parent compound remaining at 20 uM measured after 120 mins by LC-MS analysis; type: ADME, cell-free; conditions: read-out: Stability
[11] = biological target: T2, Calcium/calmodulin-dependent protein kinase type II subunit alpha (Homo sapiens, UniProt Q9UQM7); experiment: Induction of thermal stabilization of recombinant wildtype human CAMKIIalpha hub domain (345 to 475 residues) extracted from Escherichia coli BL21 (DE3) cells by differential scanning fluorimetric analysis; conditions: dose 0.625-320 µM
T2 sequence (Q9UQM7 whole entry, the tested form may be a part): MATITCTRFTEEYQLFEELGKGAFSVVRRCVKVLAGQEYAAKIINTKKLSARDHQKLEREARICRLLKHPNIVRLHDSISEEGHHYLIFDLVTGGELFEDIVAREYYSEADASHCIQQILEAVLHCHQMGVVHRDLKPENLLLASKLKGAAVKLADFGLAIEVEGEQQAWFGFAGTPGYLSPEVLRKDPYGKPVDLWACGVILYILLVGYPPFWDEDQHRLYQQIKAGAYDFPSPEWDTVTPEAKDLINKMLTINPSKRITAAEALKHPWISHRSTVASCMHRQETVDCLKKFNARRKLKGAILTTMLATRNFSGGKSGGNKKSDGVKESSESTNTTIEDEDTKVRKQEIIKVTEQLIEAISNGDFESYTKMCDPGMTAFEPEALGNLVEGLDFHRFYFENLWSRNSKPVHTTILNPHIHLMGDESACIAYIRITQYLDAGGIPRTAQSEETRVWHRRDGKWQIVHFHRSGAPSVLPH

BCRP [12] = experiment: Apparent permeability across basolateral to apical side in human Caco-2 cells transfected with human BCRP at 3 uM measured after 60 to 90 mins by LC-MS/MS analysis; type: ADME, cell-based; conditions: time 60-90 min
[13] = biological target: T2, Calcium/calmodulin-dependent protein kinase type II subunit alpha; experiment: Binding affinity to recombinant wildtype human CAMKIIalpha hub domain (345 to 475 residues) extracted from Escherichia coli BL21 (DE3) cells assessed as dissociation constant by SPR analysis
[14] = Metabolic stability in pooled CD-1 mouse liver microsomes assessed as parent compound remaining at 10 uM measured after 60 mins in presence of NADPH regeneration system by LC-MS analysis; type: ADME, Microsome; conditions: read-out: Stability
[15] = Ratio of unbound brain to plasma drug concentration in mouse at 10 mg/kg, ip measured after 0.5 hrs by LC-MS/MS analysis; type: ADME, organism-based; conditions: brain and plasma, read-out: K(p,uu,brain)
BCRP [16] = experiment: Apparent permeability across apical to basolateral side in human Caco-2 cells transfected with human BCRP at 3 uM measured after 60 to 90 mins by LC-MS/MS analysis; type: ADME, cell-based; conditions: time 60-90 min
[17] = biological target: T2, Calcium/calmodulin-dependent protein kinase type II subunit alpha; experiment: Induction of thermal stabilization of recombinant wildtype human CAMKIIalpha hub domain (345 to 475 residues) extracted from Escherichia coli BL21 (DE3) cells assessed as change in melting temperature at 0.625 to 320 microM by differential scanning fluorimetric analysis; conditions: dose 0.625-320 µM
[18] = Drug concentration in mouse brain at 10 mg/kg, ip measured after 0.5 hrs by LC-MS/MS analysis; type: ADME, organism-based; conditions: read-out: Ct
[19] = Chemical stability of compound in phosphate buffer solution at pH 7.4; type: physicochemical
[20] = Metabolic stability in pooled CD-1 mouse liver microsomes assessed as parent compound remaining at 10 uM measured immediately in presence of NADPH regeneration system by LC-MS analysis; type: ADME, Microsome; conditions: read-out: Stability
[21] = Drug concentration in mouse plasma at 10 mg/kg, ip measured after 0.5 hrs by LC-MS/MS analysis; type: ADME, organism-based
BCRP [22] = experiment: Apparent permeability across basolateral to apical side in human Caco-2 cells transfected with human BCRP at 3 uM preincubated with novobiocin for 15 to 30 mins followed by compound addition and measured after 60 to 90 mins by LC-MS/MS analysis; type: ADME, cell-based; conditions: time 60-90 min
[23] = Metabolic stability in pooled human plasma assessed as parent compound remaining at 20 uM measured immediately by LC-MS analysis; type: ADME, cell-free; conditions: read-out: Stability
[24] = Metabolic stability in pooled CD-1 mouse liver microsomes assessed as parent compound remaining at 10 uM measured after 15 mins in presence of NADPH regeneration system by LC-MS analysis; type: ADME, Microsome; conditions: read-out: Stability
physchem = conditions: potassium phosphate buffer, pH 7.4
Description: Stability of compound in potassium phosphate buffer at pH 7.4 assessed as half-life

[25] = Prodrug conversion in mouse plasma assessed as 2-(2,6-dichlorophenyl)thiazole-4-carboxylic acid release at 10 mg/kg, po measured after 0.5 hrs by LC-MS/MS analysis; type: ADME, organism-based; conditions: in vivo
[26] = Prodrug conversion in mouse brain assessed as 2-(2,6-dichlorophenyl)thiazole-4-carboxylic acid release at 10 mg/kg, po measured after 0.5 hrs by LC-MS/MS analysis; type: ADME, organism-based; conditions: in vivo

T1 sequence (P11275 whole entry): as the sequence (Q9UQM7 whole entry, the tested form may be a part) above, with S324N counted along it

Ki ([2]; read-out: Ki): 0.22 µM
SMILES: O=C(O)c1csc(-c2cccc3ccccc23)n1

Ki ([2]; read-out: Ki): > 10 µM
SMILES: O=C(O)Cc1csc(Cc2ccccc2)n1

Ki ([2]; read-out: Ki): 44.8 µM
SMILES: Clc1cccc(Cl)c1-c1nc(Cc2nnn[nH]2)cs1

Ki ([2]; read-out: Ki): 0.16 µM
SMILES: O=C(O)c1csc(-c2c(I)cccc2I)n1

Activity [11]: Dose-dependent-effect
ΔTm [17]: 18 °C
Ki ([2]; read-out: Ki): 0.1 µM
SMILES: Cc1cccc(C)c1-c1nc(C(=O)O)cs1

Ki ([2]; read-out: Ki): 3.1 µM
SMILES: O=C(O)Cc1csc(-c2ccccc2)n1

Ki ([2]; read-out: Ki): > 100 µM
SMILES: OC1(c2csc(-c3c(Cl)cccc3Cl)n2)COC1

The remaining lines, values behind:

SMILES: O=C(Nc1nc(C(=O)O)cs1)c1ccccc1
Ki [1]: > 100 µM

SMILES: O=C(O)Cc1csc(-c2ccccc2Cl)n1
Ki ([2]; read-out: Ki): 2 µM

SMILES: O=C(O)c1csc(-c2ccccc2)n1
Ki ([2]; read-out: Ki): 11.5 µM

SMILES: O=C(O)c1cnc(-c2ccccc2)s1
Ki ([2]; read-out: Ki): > 100 µM

SMILES: COc1ccc(-c2nc(C(=O)O)cs2)cc1
Ki ([2]; read-out: Ki): 7.2 µM

SMILES: Cc1ccc(-c2nc(CC(=O)O)cs2)cc1
Ki ([2]; read-out: Ki): 2.9 µM

SMILES: O=C(O)c1csc(-c2ccc(C(F)(F)F)cc2)n1
Ki [1]: 10.3 µM

SMILES: CCc1ccc(-c2nc(C(=O)O)cs2)cc1
Ki ([2]; read-out: Ki): 5.4 µM

SMILES: O=C(O)c1csc(-c2ccccc2O)n1
Ki [1]: 8 µM

SMILES: O=C(O)c1csc(-c2c(Cl)cccc2Cl)n1
remaining at 0.5 h, 10 µM [3]: 104%
Papp A→B at 3 µM (BCRP [4]): 10.9 ×10⁻⁶ cm/s
Kp at 0.5 h [5]: 0.02
efflux ratio at 3 µM (BCRP [6]): 1.05
remaining at 1 h, 20 µM [7]: 98%
remaining at 0.5 h, 20 µM [8]: 101%
efflux ratio at 3 µM (BCRP [9]): 1.06
remaining at 2 h, 20 µM [10]: 94%
Activity [11]: Dose-dependent-effect
Papp B→A at 3 µM (BCRP [12]): 11.3 ×10⁻⁶ cm/s
Kd [13]: 0.759 µM
remaining at 1 h, 10 µM [14]: 100%
Kp uu at 0.5 h [15]: 0.1
Papp A→B at 3 µM (BCRP [16]): 10.7 ×10⁻⁶ cm/s
ΔTm [17]: 21.4 °C
concentration at 0.5 h [18]: 350 ng/g
Stability [19]: Stable
remaining at 0 min, 10 µM [20]: 100%
concentration at 0.5 h [21]: 18600 ng/mL
Papp B→A at 3 µM (BCRP [22]): 11.4 ×10⁻⁶ cm/s
remaining at 0 min, 20 µM [23]: 100%
remaining at 0.25 h, 10 µM [24]: 101%
Ki ([2]; read-out: Ki): 0.062 µM

SMILES: O=C(O)c1csc(-c2ccc(Cl)c(Cl)c2)n1
Ki ([2]; read-out: Ki): 1.6 µM

SMILES: O=C(O)C1=CC(O)CC1 (stereo unspecified)
Ki ([2]; read-out: pKi (converted)): 0.126 µM

SMILES: CCN(CC)CCOC(=O)c1ccc(N)cc1 [PROCAINE]
half-life (physchem): 2 min

SMILES: CC(C)(C)COC(=O)c1csc(-c2c(Cl)cccc2Cl)n1
remaining at 0.5 h, 10 µM [3]: 75%
Drug metabolism [25]: metabolite_notdetected
remaining at 1 h, 20 µM [7]: 65%
remaining at 0.5 h, 20 µM [8]: 75%
remaining at 2 h, 20 µM [10]: 63%
remaining at 1 h, 10 µM [14]: 59%
Stability [19]: Unstable
remaining at 0 min, 10 µM [20]: 100%
remaining at 0 min, 20 µM [23]: 100%
Drug metabolism [26]: metabolite_notdetected
remaining at 0.25 h, 10 µM [24]: 84%
Ki ([2]; read-out: Ki): > 100 µM

Source: ChEMBL document CHEMBL6096733, “Structure-Based Virtual Screening Identifies 2-Arylthiazole-4-Carboxylic Acids as a Novel Class of Nanomolar Affinity Ligands for the CaMKIIα Hub Domain” (J Med Chem, 2025)
